The values below come from ChEMBL document CHEMBL6074662, “Antibacterial, Antibiofilm, and Anti-inflammatory Effects of a Novel Thrombin-Derived Peptide in Sepsis Models: Insights into Underlying Mechanisms” (J Med Chem, 2024).

In brackets after ≈: the same amount, converted by molar mass.

Data set [1] deals with Staphylococcus aureus. The data set is described as follows: Antibacterial activity against Staphylococcus aureus KCTC 1621 incubated for 24 hrs by CLSI based broth microdilution method. The class given is functional. In general terms: Broth dilution looks for growth in wells or tubes with falling amounts of substance.
Data set [2] concerns Staphylococcus aureus. The data set is described as follows: Antibacterial activity against methicillin-resistant Staphylococcus aureus CCARM 3095 incubated for 24 hrs by CLSI based broth microdilution method. The class given is functional.
For data set [3], the system named is Acinetobacter baumannii. The data set is described as follows: Antibacterial activity against carbapenem-resistant Acinetobacter baumannii NMS 1707 incubated for 24 hrs by CLSI based broth microdilution method. It is filed as functional.
Another data set has as its system Salmonella typhimurium. Nature of the data set: Antibacterial activity against Salmonella typhimurium KCTC 1926 incubated for 24 hrs by CLSI based broth microdilution method. It is filed as functional, Salmonella enterica subsp. enterica serovar Typhimurium. Conditions: Salmonella enterica; call rule not given here.
Data set [4] can be described thus: Effect on secondary structure of drug in PBS assessed as formation of random coil structure at 150 uM by CD analysis. It is filed as physicochemical. Conditions: buffer.
The subject of data set [5] is Acinetobacter baumannii. The data set is described as follows: Antibacterial activity against carbapenem-resistant Acinetobacter baumannii CCARM 12005 incubated for 24 hrs by CLSI based broth microdilution method. The class given is functional.
Data set [6] can be described thus: Effect on secondary structure of drug in TFE assessed as fold increase in formation of alpha-helical conformation at 150 uM by CD analysis relative to HVF18. It is filed as physicochemical.
The nature of data set [7]: Effect on secondary structure of drug in LPS assessed as fold increase in formation of alpha-helical conformation at 150 uM by CD analysis relative to HVF18. The class given is physicochemical.
Data set [8] is described as follows: Hydrophobicity of compound assessed as retention time by RP-HPLC analysis. The class given is physicochemical.
The nature of data set [9]: Hemolytic activity in sheep RBC incubated for 1 hr by absorbance based assay. The class given is toxicity, cell-based, Ovis aries. Conditions: erythrocyte.
Data set [10] relates to Staphylococcus aureus. The data set is described as follows: Antibacterial activity against methicillin-resistant Staphylococcus aureus CCARM 3089 incubated for 24 hrs by CLSI based broth microdilution method. The class given is functional.
For data set [11], the system named is Pseudomonas aeruginosa. Nature of the data set: Antibacterial activity against multidrug-resistant Pseudomonas aeruginosa CCARM 2109 incubated for 24 hrs by CLSI based broth microdilution method. The class given is functional.
For data set [12], the system named is Pseudomonas aeruginosa. The data set is described as follows: Antibacterial activity against Pseudomonas aeruginosa KCTC 1637 incubated for 24 hrs by CLSI based broth microdilution method. It is filed as functional.
The subject of data set [13] is Staphylococcus aureus. Nature of the data set: Antibacterial activity against methicillin-resistant Staphylococcus aureus CCARM 3090 incubated for 24 hrs by CLSI based broth microdilution method. It is filed as functional.
In data set [14] the test system is Acinetobacter baumannii. The data set is described as follows: Antibacterial activity against carbapenem-resistant Acinetobacter baumannii NMS 1915 incubated for 24 hrs by CLSI based broth microdilution method. The class given is functional.
Another data set relates to Bacillus subtilis. The data set is described as follows: Antibacterial activity against Bacillus subtilis KCTC 3068 incubated for 24 hrs by CLSI based broth microdilution method. It is filed as functional.
Data set [15] in a line: Hemolytic activity in sheep RBC at 256 uM incubated for 1 hr by absorbance based assay. Conditions: sheep red blood cells, read-out: Activity. It is filed as toxicity, cell-based, Ovis aries, Erythrocyte.
The test system of a further data set is Enterococcus faecium. Nature of the data set: Antibacterial activity against vancomycin-resistant Enterococcus faecium ATCC 51559 incubated for 24 hrs by CLSI based broth microdilution method. The class given is functional.
The test system of a further data set is Escherichia coli. Nature of the data set: Antibacterial activity against Escherichia coli KCTC 1682 incubated for 24 hrs by CLSI based broth microdilution method. It is filed as functional.
Data set [16] deals with Acinetobacter baumannii. Nature of the data set: Antibacterial activity against multidrug-resistant Acinetobacter baumannii 329-97 incubated for 24 hrs by CLSI based broth microdilution method. The class given is functional.
For data set [17], the system named is Pseudomonas aeruginosa. The data set is described as follows: Antibacterial activity against multidrug-resistant Pseudomonas aeruginosa CCARM 2095 incubated for 24 hrs by CLSI based broth microdilution method. The class given is functional.
Data set [18] concerns Acinetobacter baumannii. The data set is described as follows: Antibacterial activity against multidrug-resistant Acinetobacter baumannii 329-53 incubated for 24 hrs by CLSI based broth microdilution method. The class given is functional.
The test system of data set [19] is Staphylococcus epidermidis. The data set is described as follows: Antibacterial activity against Staphylococcus epidermidis KCTC 1917 incubated for 24 hrs by CLSI based broth microdilution method. The class given is functional.
Data set [20] can be described thus: Effect on secondary structure of drug in SDS assessed as fold increase in formation of alpha-helical conformation at 150 uM by CD analysis relative to HVF18. The class given is physicochemical.
In data set [21] the test system is Pseudomonas aeruginosa. The data set is described as follows: Antibacterial activity against multi-drug resistant Pseudomonas aeruginosa CCARM 2095 incubated for 24 hrs by broth microdilution method. It is filed as functional.
Data set [22] has as its system Staphylococcus aureus. The data set is described as follows: Antibacterial activity against methicillin-resistant Staphylococcus aureus CCARM 3089 incubated for 24 hrs by broth microdilution method. It is filed as functional.

For the molecule H-GVFRLKKWIQKVIRQWGR-NH2, the MIC (in general, the lowest concentration found to suppress growth) in the data set on Staphylococcus aureus [1] was 8 µM; in the data set with Staphylococcus aureus [2] it was 4 µM; in the data set with Acinetobacter baumannii [3], 2 µM; in the data set on Salmonella typhimurium, 4 µM; against Acinetobacter baumannii [5], 4 µM; against Staphylococcus aureus [10], 8 µM. The MIC against Pseudomonas aeruginosa [11] was 16 µM; against Pseudomonas aeruginosa [12], 8 µM; against Staphylococcus aureus [13], 8 µM; against Acinetobacter baumannii [14], 2 µM; with Bacillus subtilis, 2 µM; in the data set on Enterococcus faecium, 8 µM. In addition, the minimal inhibitory concentration (MIC) in the data set on Escherichia coli is 8 µM; in the data set with Acinetobacter baumannii [16], 2 µM; against Pseudomonas aeruginosa [17], 2 µM; with Acinetobacter baumannii [18], 4 µM; in [19] it was 4 µM. In data set [4], the result was Active. Besides, the “fold change (FC)” value in data set [6], in [7] and in [20] was ~ 5 throughout. For the same molecule, the Retention_time in [8] came out at 25.15 min. Also, in data set [9], the HC10 came to 122 µM. The hemolysis at 1 h, 256 µM in data set [15] amounted to 21.2%.

Turning to H-GVFRLKKWIQKVIKQWGK-NH2, the minimal inhibitory concentration (MIC) turned out to be 8 µM in the data set with Staphylococcus aureus [1]; 8 µM against Staphylococcus aureus [2]; 2 µM in the data set on Acinetobacter baumannii [3]; 4 µM in the data set on Salmonella typhimurium; 4 µM against Acinetobacter baumannii [5]; 8 µM in the data set on Staphylococcus aureus [10]. Further, the minimum inhibitory concentration (MIC) in the data set with Pseudomonas aeruginosa [11] amounted to 16 µM; against Pseudomonas aeruginosa [12], 8 µM; against Staphylococcus aureus [13] it was 8 µM; against Acinetobacter baumannii [14], 2 µM; in the data set on Bacillus subtilis it was 4 µM; in the data set on Enterococcus faecium, 8 µM. The MIC with Escherichia coli is 8 µM; against Acinetobacter baumannii [16], 1 µM; in the data set with Pseudomonas aeruginosa [17] it was 4 µM; with Acinetobacter baumannii [18], 8 µM; in [19], 4 µM. The result in data set [4] was Active. Besides, the “fold change (FC)” value in data set [6], in data set [7] and in data set [20] was ~ 5 throughout. For the same molecule, the Retention_time in data set [8] is given as 25.16 min. In data set [9], this molecule came in with an HC10 of 212 µM. Moreover, the hemolysis at 1 h, 256 µM in [15] worked out at 12.2%.

Consider H-GVFRLKKWIRKVIRRWGR-NH2, for which the MIC turned out to be 8 µM against Staphylococcus aureus [1]; 8 µM in the data set on Staphylococcus aureus [2]; 8 µM with Acinetobacter baumannii [3]; 4 µM with Salmonella typhimurium; 8 µM with Acinetobacter baumannii [5]; 4 µM against Staphylococcus aureus [10]. Moreover, the minimal inhibitory concentration (MIC) amounted to 16 µM against Pseudomonas aeruginosa [11]; 8 µM against Pseudomonas aeruginosa [12]; 4 µM with Staphylococcus aureus [13]; 4 µM against Acinetobacter baumannii [14]; 4 µM against Bacillus subtilis; 4 µM in the data set with Enterococcus faecium. For the same molecule, the MIC against Escherichia coli was 16 µM; against Acinetobacter baumannii [16], 2 µM; with Pseudomonas aeruginosa [17], 2 µM; in the data set with Acinetobacter baumannii [18], 8 µM; in [19] it was 8 µM. Further, the result in data set [4] was Active. Further, the “fold change (FC)” value in [6], in data set [7] and in [20] was ~ 5 in each case. Besides, the Retention_time in data set [8] is given as 22.99 min. The same molecule registered an HC10 in data set [9] of 116 µM. Also, the hemolysis at 1 h, 256 µM in data set [15] was determined as 20.4%.

As to H-HVFRLKKWIQKVIDQFGE-OH, the MIC in the data set on Staphylococcus aureus [1] was 128 µM; in the data set on Staphylococcus aureus [2], greater than 128 µM; in the data set with Acinetobacter baumannii [3], 32 µM; in the data set with Salmonella typhimurium, 32 µM; against Acinetobacter baumannii [5], 4 µM; in the data set on Staphylococcus aureus [10], greater than 128 µM. For the same molecule, the MIC was greater than 128 µM in the data set with Pseudomonas aeruginosa [11]; 128 µM in the data set with Pseudomonas aeruginosa [12]; greater than 128 µM against Staphylococcus aureus [13]; 64 µM in the data set on Acinetobacter baumannii [14]; 32 µM with Bacillus subtilis; greater than 128 µM in the data set on Enterococcus faecium. Moreover, the MIC against Escherichia coli was 32 µM; against Acinetobacter baumannii [16], 4 µM; in the data set on Pseudomonas aeruginosa [17], 128 µM; in the data set with Acinetobacter baumannii [18], 4 µM; in data set [19] it was 16 µM. Further, in [8], the Retention_time was 25.53 min. This molecule gave an HC10 in [9] greater than 256 µM. Besides, in data set [15], the hemolysis at 1 h, 256 µM stood at 7.8%.

Consider `O=C(N[C@H](CO)[C@H](O)c1ccc([N+](=O)[O-])cc1)C(Cl)Cl` [CHLORAMPHENICOL], for which the results for the MIC against Pseudomonas aeruginosa [21] and against Staphylococcus aureus [22] were 4.1 mM (≈ 1320 µg/mL) and 1020 µM (≈ 331 µg/mL), respectively.
